Common to all, as to format: cell-based
One assay has as its system Serratia marcescens. The experiment in a line: MIC against Gram-negative bacteria: Serratia marcescens. The conditions noted are these: 10 h cultivation at 37° C. Here is the method:
(§1) 1. Gram-negative bacteria, such as E. coli BL21, Pseudomonas aeruginosa, Klebsiella pneumonia, Enterobacter cloacae, Aeromonas hydrophila, Citrobacter diversus, Moraxella catarrhalis, Proteus mirabilis, Proteus vulgaris, Serratia marcescens, etc were streaked on solid LB medium and cultured respectively. Then, typical clones were picked, inoculated into common liquid LB medium respectively, and cultured at 37° C. with shaking at 185 rpm until the McFarland specific turbidity was 0.5. The bacterial culture of each of Gram-negative bacteria was centrifuged at 4000×g for 3 min, the supernatant was discarded, and the thalli were resuspended with fresh LB medium.
(§2) 2. The above-mentioned bacterial suspensions were diluted and inoculated into 96-well plates with the final concentration of the bacterial suspension being 5×10^5 CFU/mL per well.
(§3) 3. Each of the purified human-originated EGF domain proteins (PRT1 to PRT1498 in Table 1) was added to each of the above wells and subjected to two-fold serial dilution in concentration. Three parallel wells were set up for each concentration in the gradient.
(§4) 4. The above-mentioned 96-well plates were placed and cultured at 37° C. in shaking incubator shaking at 175 rpm. […] The minimal inhibitory concentration MIC is defined as the lowest concentration of the recombinant protein at which there is no growth of the bacteria.

The test system of another assay is Citrobacter diversus. The experiment in a line: MIC against Gram-negative bacteria: Citrobacter diversus. The conditions noted are these: 10 h cultivation at 37° C. How it is done:
as §1, §2, §3, §4

Another assay has as its system Proteus vulgaris. The assay is described as follows: MIC against Gram-negative bacteria: Proteus vulgaris. As to conditions: 10 h cultivation at 37° C. Here is the method:
as §1, §2, §3, §4

The next assay relates to Proteus mirabilis. The assay is described as follows: MIC against Gram-negative bacteria: Proteus mirabilis. As to conditions: 10 h cultivation at 37° C. Here is the method: as §1, §2, §3, §4
A further assay relates to Klebsiella pneumonia. The experiment in a line: MIC against Gram-negative bacteria: Klebsiella pneumonia. As to conditions: 10 h cultivation at 37° C. Here is the method: as §1, §2, §3, §4
In a further assay the test system is Pseudomonas aeruginosa. The experiment in a line: MIC against Gram-negative bacteria: Pseudomonas aeruginosa. As to conditions: 10 h cultivation at 37° C. How it is done: as §1, §2, §3, §4
A further assay concerns E. coli DH5α. The experiment in a line: Antibacterial activity: MIC and growth curve against E. coli DH5α in 96-well plate. The conditions noted are these: minimal inhibitory concentration against E. coli DH5α; 96-well plate, 5×10^5 CFU/mL, 37° C., judged after 8 h. Here is the method: 1. E. coli DH5α was exemplified. E. coli DH5α was streaked and cultured on LB solid medium. Then, a typical clone was picked and inoculated into common LB liquid medium, cultured at 37° C. with shaking at 185 rpm until the logarithmic growth phase was reached (OD600 of about 0.5). The bacterial culture was centrifuged at 4000×g for 3 min, the supernatant was discarded, and the thalli were resuspended with fresh LB medium.
2. The above-mentioned bacterial suspension was diluted and inoculated into a 96-well plate with the total volume of 100 μL per well and a bacterial count of 5×10^5 CFU/mL.
3. The recombinant protein hF VII-EGF1 was added to the above-mentioned wells with the final protein concentration in the well of the highest protein concentration being 50 μg/mL. Basing on this final concentration, a two-fold serial dilution was performed till a protein concentration gradient consisting of 50, 25, and 12.5 μg/mL was set up. Three parallel wells were set up for each concentration in the gradient.
4. The above-mentioned 96-well plate was placed and cultured at 37° C. in shaking incubator shaking at 175 rpm. Samples were taken every 30 min, the absorbance values were determined at 600 nm wavelength under a ultra violet spectrophotometer, and an inhibition curve was plotted. […] The minimal inhibitory concentration MIC is defined as the lowest concentration of the recombinant protein at which there is no growth of the bacteria.
According to the experimental procedures in Example 14, the minimal inhibitory concentrations (MIC, μg/mL) of the other human-originated EGF domain proteins (PRT2 to PRT1498 in Table 1) for E. coli DH5α were determined.

For a further assay, the system named is E. coli BL21. The assay is described as follows: MIC against Gram-negative bacteria: E. coli BL21. The conditions noted are these: 10 h cultivation at 37° C. Here is the method:
as §1, §2, §3, §4

For a further assay, the system named is Enterobacter cloacae. The experiment in a line: MIC against Gram-negative bacteria: Enterobacter cloacae. The conditions noted are these: 10 h cultivation at 37° C. Here is the method: as §1, §2, §3, §4
The next assay relates to Moraxella catarrhalis. The assay is described as follows: MIC against Gram-negative bacteria: Moraxella catarrhalis. As to conditions: 10 h cultivation at 37° C. Here is the method:
as §1, §2, §3, §4

The next assay has as its system Aeromonas hydrophila. The assay is described as follows: MIC against Gram-negative bacteria: Aeromonas hydrophila. The conditions noted are these: 10 h cultivation at 37° C. How it is done:
as §1, §2, §3, §4

Where [1] appears, read: 5×10^5 CFU/mL, two-fold serial dilution.

For “PRT973 (DLPDCSPSSCFNGGTCVDGVNSFSCLCRPGYTGAHCQ; listed as Homo sapiens)”, the minimum inhibitory concentration (MIC) in the assay on Serratia marcescens (S. marcescens) is 12.5 µg/mL; in the assay with Citrobacter diversus (C. diversus), 50 µg/mL; against Proteus vulgaris (P. vulgaris) it was 25 µg/mL; against Proteus mirabilis (P. mirabilis), 50 µg/mL; against Klebsiella pneumonia (K. pneumonia), 50 µg/mL; in the assay with Pseudomonas aeruginosa (P. aeruginosa), 12.5 µg/mL. In addition, the MIC was 12.5 µg/mL against E. coli DH5α; 12.5 µg/mL in the assay on E. coli BL21 (E. coli BL21); 12.5 µg/mL against Enterobacter cloacae (E. cloacae); 12.5 µg/mL in the assay on Moraxella catarrhalis (M. catarrhalis); 25 µg/mL in the assay on Aeromonas hydrophila (A. hydrophila).
As to “PRT1018 (DVDECETQGPPHCRNGGTCQNSAGSFHCVCVSGWGGTSCE; listed as Homo sapiens)”, the MIC against Serratia marcescens (S. marcescens) stood at 25 µg/mL; in the assay with Citrobacter diversus (C. diversus), 12.5 µg/mL; against Proteus vulgaris (P. vulgaris) it was 50 µg/mL; in the assay on Proteus mirabilis (P. mirabilis) it was 12.5 µg/mL; in the assay with Klebsiella pneumonia (K. pneumonia), 12.5 µg/mL; in the assay on Pseudomonas aeruginosa (P. aeruginosa), 50 µg/mL. Moreover, the MIC in the assay with E. coli DH5α was 25 µg/mL; in the assay on E. coli BL21 (E. coli BL21), 12.5 µg/mL; against Enterobacter cloacae (E. cloacae), 25 µg/mL; in the assay on Moraxella catarrhalis (M. catarrhalis) it was 50 µg/mL; against Aeromonas hydrophila (A. hydrophila), 50 µg/mL.
“PRT219 (DIDECRTSSYLCQYQCVNEPGKFSCMCPQGYQVVRSRTCQ; listed as Homo sapiens)”: in the assay with Serratia marcescens (S. marcescens, 5×10^5 CFU/mL), the “MIC (μg/mL) S. marcescens” value is 12.5 µg/mL. Besides, in the assay on Citrobacter diversus (C. diversus, 5×10^5 CFU/mL), the “MIC (μg/mL) C. diversus” value is 12.5 µg/mL. Moreover, in the assay with Proteus vulgaris (P. vulgaris, 5×10^5 CFU/mL), the “MIC (μg/mL) P. vulgaris” value was 25 µg/mL. Besides, the “MIC (μg/mL) P. mirabilis” value with Proteus mirabilis (P. mirabilis, 5×10^5 CFU/mL) was found to be 12.5 µg/mL. In the assay with Klebsiella pneumonia (K. pneumonia, 5×10^5 CFU/mL), the “MIC (μg/mL) K. pneumonia” value came to 12.5 µg/mL. In addition, the “MIC (μg/mL) P. aeruginosa” value in the assay with Pseudomonas aeruginosa (P. aeruginosa, 5×10^5 CFU/mL) turned out to be 50 µg/mL. This substance displayed an MIC against E. coli DH5α of 12.5 µg/mL. In the assay with E. coli BL21 (E. coli BL21, 5×10^5 CFU/mL), the “MIC (μg/mL) E. coli BL21” value came out at 25 µg/mL. Further, the “MIC (μg/mL) E. cloacae” value in the assay with Enterobacter cloacae (E. cloacae, 5×10^5 CFU/mL) is 12.5 µg/mL. In addition, the “MIC (μg/mL) M. catarrhalis” value in the assay on Moraxella catarrhalis (M. catarrhalis, 5×10^5 CFU/mL) amounted to 12.5 µg/mL. In addition, the “MIC (μg/mL) A. hydrophila” value with Aeromonas hydrophila (A. hydrophila, 5×10^5 CFU/mL) came out at 12.5 µg/mL.
“PRT1070 (RPGTCNLQCFNGGSCFLNARRQPKCRCQPRYTGDKCE; listed as Homo sapiens)”: the “MIC S. marcescens” value against Serratia marcescens (setting [1]) amounted to 12.5 µg/mL. Besides, the “MIC C. diversus” value in the assay with Citrobacter diversus (setting [1]) was determined as 12.5 µg/mL. Moreover, the “MIC P. vulgaris” value with Proteus vulgaris (setting [1]) came out at 12.5 µg/mL. Moreover, the “MIC P. mirabilis” value in the assay with Proteus mirabilis (setting [1]) came out at 12.5 µg/mL. In addition, the “MIC K. pneumonia” value with Klebsiella pneumonia (setting [1]) was 12.5 µg/mL. The “MIC P. aeruginosa” value against Pseudomonas aeruginosa (setting [1]) came out at 25 µg/mL. The same substance yielded a minimum inhibitory concentration (MIC) against E. coli DH5α of 25 µg/mL. The “MIC E. coli BL21” value in the assay with E. coli BL21 (setting [1]) was 12.5 µg/mL. In the assay on Enterobacter cloacae (setting [1]), the “MIC E. cloacae” value amounted to 25 µg/mL. Also, in the assay on Moraxella catarrhalis (setting [1]), the “MIC M. catarrhalis” value came out at 12.5 µg/mL. Also, in the assay on Aeromonas hydrophila (setting [1]), the “MIC A. hydrophila” value stood at 12.5 µg/mL.

For the origin of these results see patent US9833497B2, “Human originated EGF domain proteins and use of the same” (CHENGDU SOURCEBIO LIMITED-LIABILITY COMPANY, priority 2013, dated 2017).
